Source: ChEMBL document CHEMBL5120793, “A Natural Plant Ingredient, Menthone, Regulates T Cell Subtypes and Lowers Pro-inflammatory Cytokines of Rheumatoid Arthritis” (J Nat Prod, 2022)
Calls of active or inactive are those of the source.

Experiments:
CD4+ve Th [1] = test: Antiinflammatory activity against PMA induced DBA-1 mouse spleen CD4+ve Th cells assessed as reduction in IL-1beta mRNA level at 50 to 100 uM incubated for 24 hrs by RT-qPCR assay; format: functional, cell-based; settings: dose 50-100 µM
Mus musculus [2] = test: Antiarthritic activity against collagen-II induced rheumatoid arthritis DBA-1 mouse blood CD4+ T cells assessed as increase in GATA3 mRNA level at 100 mg/kg administered for 14 days on day 60 to day 74 post-immunization by RT-qPCR assay; format: functional, organism-based; settings: T-cell, time 14.0 day
Mus musculus [3] = test: Antiarthritic activity against collagen-II induced rheumatoid arthritis DBA-1 mouse model assessed as reduction in TNF-alpha protein level at 100 mg/kg administered for 14 days on day 60 to day 74 post-immunization by immunohistochemistry analysis; format: functional, organism-based; settings: time 14.0 day
Mus musculus [4] = test: Antiarthritic activity against collagen-II induced rheumatoid arthritis DBA-1 mouse model assessed as reduction in IL-17 protein level at 100 mg/kg administered for 14 days on day 60 to day 74 post-immunization by immunohistochemistry analysis; format: functional, organism-based; settings: time 14.0 day
Mus musculus [5] = test: Antiarthritic activity against collagen-II induced rheumatoid arthritis DBA-1 mouse blood CD4+ T cells assessed as increase in Foxp3 mRNA level at 100 mg/kg administered for 14 days on day 60 to day 74 post-immunization by RT-qPCR assay; format: functional, organism-based; settings: T-cell, time 14.0 day
Mus musculus [6] = test: Antiarthritic activity against collagen-II induced rheumatoid arthritis DBA-1 mouse model assessed as reduction in serum IL-6 level at 100 mg/kg administered for 14 days on day 60 to day 74 post-immunization by ELISA; format: functional, organism-based; settings: time 14.0 day
Mus musculus [7] = test: Antiarthritic activity against collagen-II induced rheumatoid arthritis DBA-1 mouse spleen CD4+ T cells assessed as increase in GATA3 mRNA level at 100 mg/kg administered for 14 days on day 60 to day 74 post-immunization by RT-qPCR assay; format: functional, organism-based; settings: T-cell, time 14.0 day
Mus musculus [8] = test: Antiarthritic activity against collagen-II induced rheumatoid arthritis DBA-1 mouse spleen CD4+ T cells assessed as reduction in RORgammaT mRNA level at 100 mg/kg administered for 14 days on day 60 to day 74 post-immunization by RT-qPCR assay; format: functional, organism-based; settings: T-cell, time 14.0 day
Mus musculus [9] = test: Antiarthritic activity against collagen-II induced rheumatoid arthritis DBA-1 mouse spleen CD4+ T cells assessed as reduction in Th17 cells differentiation at 100 mg/kg administered for 14 days on day 60 to day 74 post-immunization by flow cytometry analysis; format: functional, organism-based; settings: T-cell, time 14.0 day
Mus musculus [10] = test: Antiarthritic activity against collagen-II induced rheumatoid arthritis DBA-1 mouse blood CD4+ T cells assessed as reduction in RORgammaT mRNA level at 100 mg/kg administered for 14 days on day 60 to day 74 post-immunization by RT-qPCR assay; format: functional, organism-based; settings: T-cell, time 14.0 day
Mus musculus [11] = test: Antiarthritic activity against collagen-II induced rheumatoid arthritis DBA-1 mouse model assessed as reduction in blood TNF-alpha mRNA level at 100 mg/kg administered for 14 days on day 60 to day 74 post-immunization by RT-qPCR assay; format: functional, organism-based; settings: time 14.0 day
Mus musculus [12] = test: Antiarthritic activity against collagen-II induced rheumatoid arthritis DBA-1 mouse spleen CD4+ T cells assessed as reduction in Th1 cells differentiation at 100 mg/kg administered for 14 days on day 60 to day 74 post-immunization by flow cytometry analysis; format: functional, organism-based; settings: T-cell, time 14.0 day
CD4+ve Th [13] = test: Antiinflammatory activity against PMA induced DBA-1 mouse spleen CD4+ve Th cells assessed as reduction in TNF-alpha mRNA level at 50 to 100 uM incubated for 24 hrs by RT-qPCR assay; format: functional, cell-based; settings: dose 50-100 µM
Mus musculus [14] = test: Antiarthritic activity against collagen-II induced rheumatoid arthritis DBA-1 mouse blood CD4+ T cells assessed as reduction in Th1 cells differentiation at 100 mg/kg administered for 14 days on day 60 to day 74 post-immunization by flow cytometry analysis; format: functional, organism-based; settings: T-cell, time 14.0 day
Mus musculus [15] = test: Antiarthritic activity against collagen-II induced rheumatoid arthritis DBA-1 mouse model assessed as reduction in blood IL-6 mRNA level at 100 mg/kg administered for 14 days on day 60 to day 74 post-immunization by RT-qPCR assay; format: functional, organism-based; settings: time 14.0 day
Mus musculus [16] = test: Antiarthritic activity against collagen-II induced rheumatoid arthritis DBA-1 mouse model assessed as reduction in damage of articular cartilage at 100 mg/kg administered for 14 days on day 60 to day 74 post-immunization; format: functional, organism-based; settings: time 14.0 day
Mus musculus [17] = test: Antiarthritic activity against collagen-II induced rheumatoid arthritis DBA-1 mouse model assessed as reduction in serum IL-1beta level at 100 mg/kg administered for 14 days on day 60 to day 74 post-immunization by ELISA; format: functional, organism-based; settings: time 14.0 day
Mus musculus [18] = test: Antiarthritic activity against collagen-II induced rheumatoid arthritis DBA-1 mouse model assessed as reduction in clinical score at 100 mg/kg administered for 14 days on day 60 to day 74 post-immunization; format: functional, organism-based; settings: time 14.0 day
Mus musculus [19] = test: Antiarthritic activity against collagen-II induced rheumatoid arthritis DBA-1 mouse model assessed as reduction in serum TNF-alpha level at 100 mg/kg administered for 14 days on day 60 to day 74 post-immunization by ELISA; format: functional, organism-based; settings: time 14.0 day
Mus musculus [20] = test: Antiarthritic activity against collagen-II induced rheumatoid arthritis DBA-1 mouse blood CD4+ T cells assessed as reduction in Th17 cells differentiation at 100 mg/kg administered for 14 days on day 60 to day 74 post-immunization by flow cytometry analysis; format: functional, organism-based; settings: T-cell, time 14.0 day
Mus musculus [21] = test: Antiarthritic activity against collagen-II induced rheumatoid arthritis DBA-1 mouse blood CD4+ T cells assessed as reduction in T-bet mRNA level at 100 mg/kg administered for 14 days on day 60 to day 74 post-immunization by RT-qPCR assay; format: functional, organism-based; settings: T-cell, time 14.0 day
Mus musculus [22] = test: Antiarthritic activity against collagen-II induced rheumatoid arthritis DBA-1 mouse model assessed as reduction in synovial hyperplasia at 100 mg/kg administered for 14 days on day 60 to day 74 post-immunization; format: functional, organism-based; settings: time 14.0 day
Mus musculus [23] = test: Antiarthritic activity against collagen-II induced rheumatoid arthritis DBA-1 mouse spleen CD4+ T cells assessed as reduction in T-bet mRNA level at 100 mg/kg administered for 14 days on day 60 to day 74 post-immunization by RT-qPCR assay; format: functional, organism-based; settings: T-cell, time 14.0 day
Mus musculus [24] = test: Antiarthritic activity against collagen-II induced rheumatoid arthritis DBA-1 mouse model assessed as reduction in IL-1beta protein level at 100 mg/kg administered for 14 days on day 60 to day 74 post-immunization by immunohistochemistry analysis; format: functional, organism-based; settings: time 14.0 day
Mus musculus [25] = test: Antiarthritic activity against collagen-II induced rheumatoid arthritis DBA-1 mouse spleen CD4+ T cells assessed as increase in Foxp3 mRNA level at 100 mg/kg administered for 14 days on day 60 to day 74 post-immunization by RT-qPCR assay; format: functional, organism-based; settings: T-cell, time 14.0 day
Mus musculus [26] = test: Antiarthritic activity against collagen-II induced rheumatoid arthritis DBA-1 mouse model assessed as reduction in blood IL-1beta mRNA level at 100 mg/kg administered for 14 days on day 60 to day 74 post-immunization by RT-qPCR assay; format: functional, organism-based; settings: time 14.0 day
CD4+ve Th [27] = test: Antiinflammatory activity against PMA induced DBA-1 mouse spleen CD4+ve Th cells assessed as reduction in IL-6 mRNA level at 50 to 100 uM incubated for 24 hrs by RT-qPCR assay; format: functional, cell-based; settings: dose 50-100 µM

Measured: Activity

CC(C)[C@@H]1CC[C@@H](C)CC1=O
active: all assays above
